Holding throughout (type): biochemical
The target of one assay is T1, ARAF (Homo sapiens, UniProt P10398).
T1 sequence (P10398 310-570 limits assumed): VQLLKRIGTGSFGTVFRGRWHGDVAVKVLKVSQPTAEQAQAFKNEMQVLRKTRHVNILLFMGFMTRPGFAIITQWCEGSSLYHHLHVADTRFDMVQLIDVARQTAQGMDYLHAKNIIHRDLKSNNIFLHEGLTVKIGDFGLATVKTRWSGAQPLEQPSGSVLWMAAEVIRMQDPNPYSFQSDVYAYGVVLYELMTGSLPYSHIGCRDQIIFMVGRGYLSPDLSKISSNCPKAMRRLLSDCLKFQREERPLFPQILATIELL
As to the kind of experiment: ARAF kinase activity assay (AlphaLISA p-MEK detection). To be noted: Table A. The protocol:
Compound preparation: solid samples of each substances in 1dram vials were suspended in DMSO (Fisher Scientific) at a stock concentration of 20 mM. Stocks were kept at −20° C. and protected from light. If solubility of the compound at 20 mM appeared to be an issue, the initial concentration of the DMSO stock was changed to 10 mM or 5 mM.
In vitro enzymatic reactions were used for evaluating compounds intrinsic activity against BRAF, CRAF and ARAF. For BRAF and CRAF, 0.375 nM of purified GST-tagged kinases (cat #B4062-10UG and cat #R1656-10UG respectively from Millipore Sigma) were incubated with 75 nM of kinase-dead MEK1 substrate (cat #40075; BPS Bioscience) in the presence of 10 μM of Ultrapure ATP (cat #V9102; Promega; part V915A) with and without the test compound in a buffer containing 50 mM HEPES pH 7.5, 10 mM MgCl2, 1 mM EDTA, 0.01% Brij-35 and 2 mM DTT. Separate reactions were performed with the MEK1 substrate and ATP as a blank control. ARAF, kinase reactions were rigorously the same with the exception that kinase concentration was raised to 3.75 nM (cat #1768-0000-1; Reaction Biology).
For compound treatment, 5 μL/well of test substance solution are placed in a 384-well proxyplate (Perkin Elmer) and mixed with 2× concentrated kinase reactions. The dilution series is selected so that nine concentrations cover a range from 100 nM to 0.01 nM. […] The final concentration of DMSO in the assay is set at 0.05%.
ARAF kinase reactions were carried out for a total of 2 hours at 30° C. and then stopped by addition of EDTA at a final concentration of 40 mM. Reactions were then detected using the AlphaLISA® SureFire® Ultra™ p-MEK ½ (Ser218/222) (PerkinElmer) kit. Reactions were performed with 5 μL of kinase reaction according to the manufacturer's specifications in 384-well proxyplates (Perkin Elmer) followed by overnight incubation of the reactions at room temperature in a humidified chamber. After completion of the detection reactions, the signals were recorded on a Synergy Neo2 plate reader (Biotek) equipped with AlphaLISA® filters. The effect of each compound dilution on the pMEK signal generated by ARAF reactions was expressed in % inhibition and calculated as follows. An internal 100% inhibition control (average of luminescence in kinase reactions comprising kinase dead MEK1 substrate alone) was included in each plate to measure of pMEK background and was subtracted from each data point. The average of DMSO (vehicle) controls (set as 0% inhibition) was also established and used to calculate % inhibition:
IC50 values were obtained by plotting the kinase inhibition values and fitting the dose-activity curves using a log(agonist) versus response−variable slope (four parameters) function using either GraphPadPrism (V7.0) or Dotmatics Screening Ultra platform. Standards included in the ARAF kinase assay were Belvarafenib (MedChem Express cat #HY-109080; CAS #1446113-23-0), LXH254 (MedChem Express cat #HY-112089; CAS #1800398-38-2) and BGB283 (cat #HY-18957; CAS #1446090-79-4).
In general terms: Alpha assays give light when donor and acceptor beads are brought close together.

For the next assay, the target named is CRAF (Homo sapiens, UniProt P04049). As to the kind of experiment: CRAF kinase activity assay (ADP-Glo). To be noted: Table 3. An outline of the steps:
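CRAF inhibition was measured by ADP-Glo. 0.375 nM purified GST-tagged CRAF was combined with 75 nM kinase-dead MEK1 substrate and 10 μM ATP in 50 mM HEPES pH 7.5, 10 mM MgCl2, 1 mM EDTA, 0.01% Brij-35 and 2 mM DTT, with nine compound concentrations from 100 nM to 0.01 nM (0.05% DMSO), in 384-well plates for 2 hours at 30° C. Luminescence was read after adding ADP-Glo and Kinase Detection reagents. IC50 came from four-parameter curve fits.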
(ADP-Glo turns the ADP formed in a reaction into a luminescent signal.)

A further assay concerns the target T2, BRAF (Homo sapiens, UniProt P15056).
T2 construct: GST; purchased Millipore Sigma B4062-10UG
As to the kind of experiment: BRAF kinase activity assay (ADP-Glo). To be noted: Table 3. The procedure, abridged:
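GST-tagged BRAF (0.375 nM) was reacted with 75 nM kinase-dead MEK1 and 10 μM ATP for 2 h at 30 °C in HEPES pH 7.5 buffer with MgCl2, EDTA, Brij-35 and DTT. Compounds were tested at nine concentrations from 100 nM to 0.01 nM with 0.05% DMSO final. ADP-Glo luminescence gave % inhibition, and IC50 came from a four-parameter fit.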

Among the data in patent US20240239801A1, “PYRIMIDO[5,4,D]PYRIMIDINE COMPOUNDS, COMPOSITIONS COMPRISING THEM AND USES THEREOF” (Université de Montréal, priority 2021, published 2024) are IC50 values, retold here.

Chain of CRAF (P04049 whole entry): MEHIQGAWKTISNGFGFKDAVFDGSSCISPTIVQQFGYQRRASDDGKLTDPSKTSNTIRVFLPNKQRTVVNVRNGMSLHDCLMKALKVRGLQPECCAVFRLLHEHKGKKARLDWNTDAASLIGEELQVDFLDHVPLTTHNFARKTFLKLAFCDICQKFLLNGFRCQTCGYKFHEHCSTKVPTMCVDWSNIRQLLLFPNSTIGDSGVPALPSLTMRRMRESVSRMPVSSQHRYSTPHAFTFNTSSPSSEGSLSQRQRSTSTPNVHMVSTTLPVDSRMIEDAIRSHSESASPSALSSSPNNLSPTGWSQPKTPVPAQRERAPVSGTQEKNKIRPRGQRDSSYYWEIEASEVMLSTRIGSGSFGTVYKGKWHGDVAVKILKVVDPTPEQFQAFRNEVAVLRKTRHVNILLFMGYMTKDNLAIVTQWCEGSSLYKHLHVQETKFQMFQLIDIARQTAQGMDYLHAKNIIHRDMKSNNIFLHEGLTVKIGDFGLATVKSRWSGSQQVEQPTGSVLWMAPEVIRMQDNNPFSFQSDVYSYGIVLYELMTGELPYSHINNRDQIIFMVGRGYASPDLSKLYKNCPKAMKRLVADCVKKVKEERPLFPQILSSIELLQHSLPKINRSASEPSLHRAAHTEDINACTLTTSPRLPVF
T2 sequence (P15056 whole entry): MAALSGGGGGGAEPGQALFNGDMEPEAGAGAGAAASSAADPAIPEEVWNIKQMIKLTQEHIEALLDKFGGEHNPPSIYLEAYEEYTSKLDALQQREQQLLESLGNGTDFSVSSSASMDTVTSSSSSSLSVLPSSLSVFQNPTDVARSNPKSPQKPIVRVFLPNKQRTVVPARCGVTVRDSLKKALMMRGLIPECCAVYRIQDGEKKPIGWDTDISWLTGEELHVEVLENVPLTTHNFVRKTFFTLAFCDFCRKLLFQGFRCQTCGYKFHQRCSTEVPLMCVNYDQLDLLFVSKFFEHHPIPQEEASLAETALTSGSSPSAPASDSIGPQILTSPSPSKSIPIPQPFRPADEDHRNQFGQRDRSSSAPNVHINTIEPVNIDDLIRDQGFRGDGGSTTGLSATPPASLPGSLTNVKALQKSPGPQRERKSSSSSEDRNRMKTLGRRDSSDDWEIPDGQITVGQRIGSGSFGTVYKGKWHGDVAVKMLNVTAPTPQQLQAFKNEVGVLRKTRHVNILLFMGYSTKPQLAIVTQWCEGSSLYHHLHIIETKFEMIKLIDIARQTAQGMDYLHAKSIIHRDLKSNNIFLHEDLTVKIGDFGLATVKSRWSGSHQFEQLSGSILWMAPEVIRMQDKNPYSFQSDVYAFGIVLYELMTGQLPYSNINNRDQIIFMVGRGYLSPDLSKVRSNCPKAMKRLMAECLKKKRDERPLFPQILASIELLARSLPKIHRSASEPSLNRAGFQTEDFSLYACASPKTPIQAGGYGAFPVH

For the compound `Cc1ccc2c(Nc3cccc(Cl)c3F)nccc2c1NC(=O)c1csc2c(N)ncnc12` [Belvarafenib, reference compound], at ARAF, the IC50 (commonly the midpoint of a concentration-inhibition curve) was above 20 nM.

Take `Nc1cccc2c1ncn2-c1ncc2ncnc(Nc3c(F)ccc(NS(=O)(=O)c4cccc(Cl)c4Cl)c3F)c2n1` [Example 80]: the IC50 at CRAF was below 10 nM; on BRAF it was below 1 nM.

For the compound `Cc1c(F)cccc1S(=O)(=O)Nc1ccc(F)c(Nc2ncnc3cnc(-n4cc(C(=O)N(C)Cc5ccncc5)c5ccccc54)nc23)c1F` [Example 98], the IC50 at ARAF was 10 to 20 nM; at CRAF, 10 to 50 nM; on BRAF, below 1 nM.

For `COc1ccc(S(=O)(=O)Nc2ccc(F)c(Nc3ncnc4cnc(-n5cnc6c(N)cccc65)nc34)c2F)c(C)c1Cl` [Example 112], the IC50 is above 20 nM at ARAF, 10 to 50 nM at CRAF and above 10 nM on BRAF.

In the case of `Cc1c(F)cccc1S(=O)(=O)Nc1ccc(F)c(Nc2ncnc3cnc(-n4cnc5c(-c6cccnc6)cccc54)nc23)c1F` [Example 114], the IC50 on ARAF is below 10 nM; on CRAF, 10 to 50 nM; on BRAF it was 1 to 10 nM.

In the case of `O=S(=O)(Nc1ccc(F)c(Nc2ncnc3cnc(-n4cnc5c(N6CCC7(CCCO7)CC6)cccc54)nc23)c1F)c1cccc(Cl)c1Cl` [Example 129], the IC50 at ARAF is 10 to 20 nM; at CRAF, 10 to 50 nM; on BRAF it was above 10 nM.
